Assay [1] addresses T1, human neutrophil elastase (HNE) (Homo sapiens, UniProt P08246).
T1 construct: purchased SERVA Electrophoresis GmbH, Heidelberg, Germany #20927.01
T1 sequence (P08246 30-267): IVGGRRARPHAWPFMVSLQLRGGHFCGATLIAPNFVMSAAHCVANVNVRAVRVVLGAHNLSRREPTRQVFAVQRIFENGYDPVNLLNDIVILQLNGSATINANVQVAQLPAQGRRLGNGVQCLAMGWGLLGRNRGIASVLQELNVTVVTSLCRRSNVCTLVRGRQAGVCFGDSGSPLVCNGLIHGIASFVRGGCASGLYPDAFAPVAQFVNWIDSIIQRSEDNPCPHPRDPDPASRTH
The assay can be described thus: In vitro inhibition of HNE using a fluorogenic peptide substrate (MeOSuc-Ala-Ala-Pro-Val-AMC). The assay is classed as biochemical. The note with it: 384 MTP format. The procedure: I. In Vitro Enzyme Assays of Human Neutrophil Elastase (HNE)
• assay buffer: 0.1 M HEPES-NaOH buffer pH 7.4, 0.5 M NaCl, 0.1% (w/v) bovine serum albumin; • suitable concentration (see below) of HNE (18 U/mg lyophil., #20927.01, SERVA Electrophoresis GmbH, Heidelberg, Germany) in assay buffer; • suitable concentration (see below) of substrate in assay buffer; • suitable concentration of test compounds diluted with assay buffer from a 10 mM stock solution in DMSO.
In Vitro Inhibition of HNE Using a Fluorogenic Peptide Substrate (Continuous Read-Out Signal, 384 MTP Assay Format):
In this protocol, the elastase substrate MeOSuc-Ala-Ala-Pro-Val-AMC (#324740, Calbiochem-Novabiochem Corporation, Merck KGaA, Darmstadt, Germany) is used. The test solution is prepared by mixing 10 μl of test compound dilution, 20 μl of HNE enzyme dilution (final concentration 8-0.4 μU/ml, routinely 2.1 μU/ml) and 20 μl of substrate dilution (final concentration 1 mM-1 μM, routinely 20 μM), respectively. The solution is incubated for 0-2 hrs at 37° C. (routinely one hour). The fluorescence of the liberated AMC due to the enzymatic reaction is measured at 37° C. (TECAN spectra fluor plus plate reader). The rate of increase of the fluorescence (ex. 395 nm, em. 460 nm) is proportional to elastase activity. IC50 values are determined by RFU-versus-[I] plots. Km and Km(app.) values are determined by Lineweaver-Burk plots and converted to Ki values by Dixon plots.

Assay [2] has as its system human polymorphonuclear cells (PMNs). The assay can be described thus: In vitro PMN elastolysis assay (tritiated elastin). The format is cell-based. The procedure: In Vitro PMN Elastolysis Assay:
This assay is used to determine the elastolytic potential of human polymorphonuclear cells (PMNs) and assess the proportion of degradation due to, neutrophil elastase [cf. Z. W. She et al., Am. J. Respir. Cell. Mol. Biol. 9, 386-392 (1993)].
Tritiated elastin, in suspension, is coated on to a 96 well plate at 10 μg per well. Test and reference [ZD-0892 (J. Med. Chem. 40, 1876-1885, 3173-3181 (1997), WO 95/21855) and α1 protease inhibitor (α1PI)] compounds are added to the wells at the appropriate concentrations. Human PMNs are separated from peripheral venous blood of healthy donors and resuspended in culture media. The neutrophils are added to the coated wells at concentrations ranging between 1×10^6 to 1×10^5 cells per well. Porcine pancreatic elastase (1.3 μM) is used as a positive control for the assay, and α1PI (1.2 μM) is used as the positive inhibitor of neutrophil elastase. The cellular control is PMNs without compound at each appropriate cell density. The cells plus compounds are incubated in a humidified incubator at 37° C. for 4 hours. The plates are centrifuged to allow the harvest of cell supernatant only. The supernatant is transferred in 75 μl volumes to corresponding wells of a 96 well Lumaplate™ (solid scintillant containing plates). The plates are dried until no liquid is visible in the wells and read in a beta counter for 3 minutes per well. […]

Take `CCNC(=O)NC1=C(C(=O)OCC)C(c2ccc(C#N)cc2)C(C(=O)OCC)=C(C)N1c1cccc(C(F)(F)F)c1` (stereo not shown) [Example 44, Diethyl 4-(4-cyanophenyl)-2-{[(ethylamino)carbonyl]amino}-6-methyl-1-[3-(trifluoromethyl)phenyl]-1,4-dihydro-3,5-pyridinedicarboxylate]: in assay [1], the IC50 came to 130 nM.
Same read-out and setting: with `CCOC(=O)C1=C(N)N(c2cccc(C(F)(F)F)c2)C(COC)=C(C(=O)OC)C1c1ccc(C#N)cc1` (stereo not shown) [Example 25] the figure was 40 nM; with `CC1=C(C#N)C(c2ccc(C#N)cc2)C(C(N)=O)=C(N)N1c1cccc(C(F)(F)F)c1` (stereo not shown) [Example 4, 2-Amino-5-cyano-4-(4-cyanophenyl)-6-methyl-1-[3-(trifluoromethyl)phenyl]-1,4-dihydro-3-pyridinecarboxamide], 27 nM.
In assay [1], `CC(=O)C1=C(N)N(c2cccc(C(F)(F)F)c2)C(C)=C(C#N)C1c1ccc(C#N)cc1` (stereo not shown) [Example 12, 5-Acetyl-6-amino-4-(4-cyanophenyl)-2-methyl-1-[3-(trifluoromethyl)phenyl]-1,4-dihydro-3-pyridinecarbonitrile] yielded an IC50 of 90 nM.
Regarding `CCOC(=O)C1=C(C)N(c2cccc(C(F)(F)F)c2)C(N)=C(C(=O)OCC)C1c1ccc(Br)nc1` (stereo not shown) [Example 43], the half-inhibitory concentration (IC50) in assay [1] came out at 800 nM.
For the compound `CCOC(=O)C1=C(C)N(c2cccc(C(F)(F)F)c2)C(N)=C(C(=O)OCC)C1c1ccc(C#N)cc1` (stereo not shown) [Example 2, Diethyl 2-amino-4-(4-cyanophenyl)-6-methyl-1-[3-(trifluoromethyl)phenyl]-1,4-dihydro-3,5-pyridine-dicarboxylate], 30 nM corresponded to half-maximal inhibition in assay [1] (IC50).
`CCOC(=O)C1=C(C)N(c2cccc(C(F)(F)F)c2)C(N(C)C)=C(C(=O)OCC)C1c1ccc(C#N)cc1` (stereo not shown) [Example 47, Diethyl 4-(4-cyanophenyl)-2-(dimethylamino)-6-methyl-1-[3-(trifluoromethyl)-phenyl]-1,4-dihydro-3,5-pyridinedicarboxylate] registered an IC50 in assay [1] of 500 nM.
For “α1PI: α1 protease inhibitor, reference and positive inhibitor of neutrophil elastase”, the “inhibition of elastolysis of 3H-elastin (mean±s.e.m.)” value in assay [2] (at 1.2 μM, n=3 different donors at 3.6×10^5 cells per well) was determined as 83.46±3.97%.
The compound `CCOC(=O)C1=C(C)N(c2cccc(C(F)(F)F)c2)C(N)=C(C2=NC(C)(C)CO2)C1c1ccc(C#N)cc1` (stereo not shown) [Example 50, Ethyl 6-amino-4-(4-cyanophenyl)-5-(4,4-dimethyl-4,5-dihydro-1,3-oxazol-2-yl)-2-methyl-1-[3-(trifluoromethyl)phenyl]-1,4-dihydro-3-pyridinecarboxylate] registered a 50% inhibitory concentration (IC50) in assay [1] of 10 nM.
Consider `COc1ccc(C(=O)N[C@H](C(=O)N2CCC[C@H]2C(=O)N[C@H](C(=O)C(F)(F)F)C(C)C)C(C)C)cc1` [ZD-0892], for which, in assay [2] (n=2 different donors at 3.6×10^5 cells per well, read-out: IC50 (mean±s.e.m.)), the IC50 was 45.5 ± 7.75 nM.

One may read the IC50 as the concentration that gives 50% inhibition.

The values are drawn from patent publication US7691854B2, “Dihydropyridine derivatives for use as human neutrophil elastase inhibitors” (Bayer Schering Pharma Aktiengesellschaft, priority 2002, dated 2010).
